PubChem BioAssay (NCI)
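Dose response: 5 concentrations. Exposure: 48 h. Format: 96-well plates. Endpoint: linear interpolation; highest concentration if not reached. Definition used: TGI = concentration required for complete inhibition of growth.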

What was measured:
Test in all cases: NCI-60 cell line screen, 48 h
[1] = test system: IGROV1 ovarian
[2] = test system: OVCAR-4 ovarian
[3] = test system: HCT-15 colon
[4] = test system: HOP-18 NSCLC
[5] = test system: SNB-19 CNS
[6] = test system: OVCAR-5 ovarian
[7] = test system: M14 melanoma
[8] = test system: NCI-H460 lung
[9] = test system: SK-OV-3 ovarian
[10] = test system: SN12C renal
[11] = test system: OVCAR-8 ovarian
[12] = test system: SR leukemia
[13] = test system: HT29 colon
[14] = test system: EKVX NSCLC
[15] = test system: M19-MEL melanoma
[16] = test system: A549 NSCLC
[17] = test system: KM12 colon
[18] = test system: HCT-116 colon
[19] = test system: NCI-H522 lung
[20] = test system: UACC-257 melanoma
[21] = test system: UO-31 renal
[22] = test system: SNB-78 CNS
[23] = test system: SK-MEL-2 melanoma
[24] = test system: LXFL 529 NSCLC
[25] = test system: K-562 leukemia
[26] = test system: SNB-75 CNS
[27] = test system: DMS 114 small cell lung
[28] = test system: COLO 205 colon
[29] = test system: XF 498 CNS
[30] = test system: RPMI-8226 leukemia
[31] = test system: KM20L2 colon
[32] = test system: DMS 273 small cell lung
[33] = test system: SK-MEL-28 melanoma
[34] = test system: UACC-62 melanoma
[35] = test system: CAKI-1 renal
[36] = test system: A498 renal
[37] = test system: SF-268 CNS
[38] = test system: U251 CNS
[39] = test system: CCRF-CEM leukemia
[40] = test system: LOX IMVI melanoma
[41] = test system: ACHN renal
[42] = test system: DLD-1 colon
[43] = test system: RXF 393 renal
[44] = test system: HL-60(TB) leukemia
[45] = test system: 786-0 renal
[46] = test system: NCI-H226 lung
[47] = test system: SK-MEL-5 melanoma
[48] = test system: SF-295 CNS
[49] = test system: HOP-92 NSCLC
[50] = test system: MALME-3M melanoma
[51] = test system: RXF-631 renal
[52] = test system: SW-620 colon
[53] = test system: TK-10 renal
[54] = test system: HCC-2998 colon
[55] = test system: SF-539 CNS
[56] = test system: OVCAR-3 ovarian
[57] = test system: MOLT-4 leukemia
[58] = test system: NCI-H23 lung
[59] = test system: HOP-62 NSCLC

Measured: TGI

CCOC(=O)/C(ON)=C(/CC/C(C(=O)OC)=C(\ON)C(=O)OCC)C(=O)OC
> 100 µM: all assays above
